Measurements from the NIST ThermoML archive (doi:10.1016/j.fluid.2006.03.015).
Numbers after ± are expanded uncertainties.

Experiment: molar heat capacity at constant pressure
Details: 101.33 kPa, Liquid, Small sample (50 mg) DSC

c1ccccc1 [benzene]
Details	molar heat capacity at constant pressure [J/K/mol]
295.15 K	134.8 ± 7
300.15 K	135.4 ± 7
305.15 K	136.5 ± 7.1
310.15 K	137.9 ± 7.2
315.15 K	139.2 ± 7.2
320.15 K	140.85 ± 7.3
325.15 K	142.5 ± 7.4
330.15 K	144.15 ± 7.5
335.15 K	145.8 ± 7.6
340.15 K	147.55 ± 7.7
345.15 K	149.3 ± 7.8
350.15 K	151.2 ± 7.9
